# Experimental data taken from US20190002429A1, “Derivatives of Xanthone Compounds” (Agency for Science, Technology and Research, priority 2011, published 2019).
# Several values for one entry are separate records, joined by “and”; a condition that tells them apart may be missing. Equal entries are not always repeated. Where two headings read alike, the source gives them in different places.
# Columns and labels:
# [1] = system: MRSA DM21455; experiment: Drug resistance test, 20 serial passages; type: cell-based, Staphylococcus aureus; conditions: MRSA DM21455, FIG. 7
# [2] = system: S. aureus DM4001; experiment: SYTOX green membrane permeabilization assay, S. aureus; conditions: 10 μM
# Description: S. aureus DM4001 was harvested at early exponential phase and suspended in 40 mM PBS until OD620 of 0.09 was obtained. Then, the bacteria suspension was incubated with 3 μM of SYTOX Green in dark. The mixture was monitored in a stirring cuvette at an excitation wavelength of 504 nm and at an emission wavelength of 523 nm until the fluorescence was stable. Then, 10 μM of AM compounds were added and the changed of fluorescence emissions were monitored.
# [3] = system: Enterococcus faecalis ATCC 29212; experiment: MIC against Enterococcus faecalis ATCC 29212; type: cell-based
# [4] = system: Enterococcus faecalis 11: DS6527 (VRE 208/11); experiment: MIC against Enterococcus faecalis DS6527 (VRE 208/11); type: cell-based; conditions: E. faecalis DS6527 (VRE 208/11); no unit in table (Example 10 MICs in μg/ml)
# [5] = Calcein leakage from E. coli lipid extract liposomes; conditions: for % Leakage of calcein: E. coli extract
# Description: (§1) To further investigate antimicrobial action of the active compounds via inner membrane targeting, a calcein leakage study was performed. In brief, liposomes which mimic bacterial membrane (DOPE: […] The lipids were dissolved in methanol/chloroform (1:2, by volume). The solvent was then dried gently using a constant stream of nitrogen gas. Then, the lipid film was placed under vacuum for at least two hours. […] The hydrated vesicles were freeze-thaw (frozen in liquid nitrogen and warmed in water bath) for at least 7 cycles. Extrusion method using mini-extruder (Avanti Polar Lipid Inc.) was used to produce homogeneous large unilamellar vesicles (LUVs). The extrusion was done for at least 10 cycles using a polycarbonate membrane (Whatman, pore size 100 nm) to obtain LUVs with diameter of 100 nm. To separate the calcein encapsulated vesicles from free calcein, gel filtration column Sephadex G-50 was used. The concentrations of eluted liposomes were determined using total phosphorus determination assay. Leakage of calcein from the liposome induced by AM-series compounds could be monitored using fluorescence spectroscopy (Photon Technology International Model 814) at an excitation wavelength of 490 nm and an emission wavelength of 520 nm. […] Those compounds with […] HC50 values have stronger leakage %. […] To further investigate the inner membrane targeting action of AM-series compounds, E. coli lipid extract was used to construct the liposome. […] Therefore, the outer layer of Gram-negative bacteria (LPS) may play important role to impede the AM-series compounds to reach inner membrane. Calcein leakage data strongly support the active compounds are inner membrane targeting.
# [6] = system: Straphylococcus aureus ATCC 25923; experiment: MIC against S. aureus ATCC 25923; type: cell-based, Staphylococcus aureus
# [7] = system: Straphylococcus aureus ATCC 29737; experiment: MIC against S. aureus ATCC 29737; type: cell-based, Staphylococcus aureus
# [8] = system: MRSA DR42412; experiment: MIC against MRSA DR42412; type: cell-based, Staphylococcus aureus
# [9] = system: Klebsiella pneumoniae ATCC10031; experiment: MIC against Klebsiella pneumoniae ATCC10031; type: cell-based
# [10] = system: Mycobacterium tuberculosis
# [11] = system: Gram-negative bacteria; experiment: Antimicrobial activity against Gram-negative bacteria (statement); type: cell-based
# [12] = system: MRSA DM21595; experiment: MIC against MRSA DM21595; type: cell-based, Staphylococcus aureus
# [13] = Calcein leakage from DOPC:DOPS liposomes; conditions: DOPC:DOPS = 3:1
# Description: as §1
# [14] = system: Enterococcus faecalis 11: DU9345 VRE; experiment: MIC against Enterococcus faecalis DU9345 VRE; type: cell-based; conditions: E. faecalis DU9345 VRE; no unit in table (Example 10 MICs in μg/ml)
# [15] = system: MRSA strain DM21455; experiment: Kill curve (time killing) of MRSA; type: cell-based, Staphylococcus aureus; conditions: FIG. 1
# [16] = system: MRSA QC Strain ATCC BAA1026; experiment: MIC against MRSA QC strain ATCC BAA1026; type: cell-based, Staphylococcus aureus
# [17] = pH value in different media; type: physicochemical
# Description: The pH values were obtained using an electronic pH meter.
# [18] = system: MRSA DM09808R; experiment: MIC against MRSA DM09808R; type: cell-based, Staphylococcus aureus
# [19] = system: Gram-positive bacteria; experiment: Antimicrobial activity against Gram-positive bacteria (statement); type: cell-based
# [20] = system: Staphylococcus aureus ATCC 6538; experiment: MIC against S. aureus ATCC 6538; type: cell-based
# [21] = system: Streptococcus epidermidis ATCC 12228; experiment: MIC against Streptococcus epidermidis ATCC 12228; type: cell-based
# [22] = system: Staphylococcus aureus ATCC29213; experiment: MIC against S. aureus ATCC29213; type: cell-based
# [23] = system: Clinical Staphylococcus aureus DM4001; experiment: MIC against clinical S. aureus DM4001; type: cell-based; conditions: Clinical S. aureus DM4001, Source: Eye
# [24] = system: rabbit cornea; conditions: in vivo
# Description: The particular model used was a 5 mm diameter corneal epithelial abrasion model. Wound healing was monitored by a slit lamp using flourescein disclosure dye so that the size of the wound could be measured. The compounds were applied topically three times per day.
# [25] = system: Clinical Staphylococcus aureus DM4400R; experiment: MIC against clinical S. aureus DM4400R; type: cell-based; conditions: Source: Cornea
# [26] = system: Staphylococcus aureus ATCC 700699 (VISA); experiment: MIC against S. aureus ATCC 700699 (MRSA-700699, VISA); type: cell-based
# [27] = Calcein leakage from DOPE:DOPG liposomes; conditions: DOPE:DOPG = 3:1
# Description: as §1
substance,measurement,setting,value
"3,6-bis-[4-(diethylamino)butoxy)]-1-hydroxy-7-methoxy-2,8-bis(3-methylbut-2-enyl)-9H-xanthen-9-one [AM-016]",Development of drug resistance,[1],has difficulty in developing drug resistance
same,SYTOX green staining of bacteria (fluorescence microscopy),[2]; FIG. 14,Large numbers of stained bacteria
same,Membrane permeabilization (SYTOX green fluorescence emission),[2]; fluorescence spectroscopy,could induce membrane permeabilization
same,Minimum inhibition concentration (MIC),[3],0.78 μg/ml and 1.17 μM
same,Minimum inhibitory concentration,[4],0.098
same,Leakage of calcein from the E. coli lipid extract (in words),[5],able to induce leakage
same,% Leakage of calcein,[5]; compound:lipid ratio 1:2,57.82%
same,% Leakage of calcein,[5]; compound:lipid ratio 1:4,58.43%
same,% Leakage of calcein,[5]; compound:lipid ratio 1:8,31.70%
same,Minimum inhibition concentration (MIC),[6],3.125 μg/ml and 4.70 μM
same,Minimum inhibition concentration (MIC),[7],1.56 μg/ml and 2.35 μM
same,Minimum inhibition concentration (MIC),"[8]; MRSA DR42412, Source: Sputum",1.56 μg/ml and 2.35 μM
same,MIC,"[8]; MRSA-42412 (Sputum), Example 10, Mueller Hinton broth dilution",0.395 mg/L
same,Minimum inhibition concentration (MIC),[9],40 μg/ml and 60.16 μM
same,MIC100,[10],4 µM
same,MIC100,[10]; value in brackets,2.66 mg/L
same,Activity against Gram-negative bacteria,[11],inactive
same,Minimum inhibition concentration (MIC),"[12]; MRSA DM21595, Source: Wound",0.78 μg/ml and 1.17 μM
same,MIC,"[12]; MRSA-21595 (Wound), Example 10, Mueller Hinton broth dilution",0.395 mg/L
same,% Leakage of calcein,[13]; compound:lipid ratio 1:2,88.43%
same,% Leakage of calcein,[13]; compound:lipid ratio 1:4,72.76%
same,% Leakage of calcein,[13]; compound:lipid ratio 1:8,37.66%
same,Minimum inhibitory concentration,[14],0.78
same,Time to eliminate 99.9% of MRSA,[15],≤ 20 min
same,Minimum inhibition concentration (MIC),[16],3.125 μg/ml and 4.70 μM
same,pH,"[17]; PBS, 50 μg/ml compound",6.96 ± 0.01
same,pH,"[17]; PBS, 100 μg/ml compound",6.97 ± 0.01
same,pH,"[17]; Saline, 50 μg/ml compound",6.84 ± 0.21
same,pH,"[17]; Saline, 100 μg/ml compound",6.78 ± 0.05
same,pH,"[17]; Water, 50 μg/ml compound",6.44 ± 0.27
same,pH,"[17]; Water, 70 μg/ml compound",6.72 ± 0.23
same,Minimum inhibition concentration (MIC),"[18]; MRSA DM09808R, Source: Eye",1.56 μg/ml and 2.35 μM
same,MIC,"[18]; MRSA-09808R (Eye), Example 10, Mueller Hinton broth dilution",3.125 mg/L
same,Activity against Gram-positive bacteria,[19],active
same,Minimum inhibition concentration (MIC),[20],1.56 μg/ml and 2.35 μM
same,Minimum inhibition concentration (MIC),[21],0.78 μg/ml and 1.17 μM
same,Minimum inhibition concentration (MIC),[22],0.39 μg/ml and 0.59 μM
same,Minimum inhibition concentration (MIC),[23],1.56 μg/ml and 2.35 μM
same,Cytotoxicity to the rabbit eye in corneal wound healing model,[24],does not exhibit any cytotoxicity
same,Effect on wound healing (percentage wound closing),[24],does not delay wound healing
same,Minimum inhibition concentration (MIC),[25],0.78 μg/ml and 1.17 μM
same,MIC,"[26]; MRSA-700699, Example 10, Mueller Hinton broth dilution",0.095 mg/L
same,Minimum inhibitory concentration,"[26]; S. aureus ATCC 700699 (VISA), no unit in table (Example 10 MICs in μg/ml)",0.39
same,% Leakage of calcein,[27]; compound:lipid ratio 1:2,54.43%
same,% Leakage of calcein,[27]; compound:lipid ratio 1:4,37.00%
same,% Leakage of calcein,[27]; compound:lipid ratio 1:8,21.00%
